Assay results published in paper PMC10196813 (Angewandte Chemie (International ed. in English), 2023).
Peptide text beside a SMILES is read from it. * marks the point of attachment. Cbz = O=C(OCc1ccccc1)*

System: PTP1B/TC-PTP
Format: cell-based
Conditions: HEK293 cells, followed by 4 h DU-14 at 100 nM

SMILES	effect of pre-treatment/addition on DU-14 mediated PTP1B and TC-PTP degradation
CC(C)C[C@@H](C=O)NC(=O)[C@H](CC(C)C)NC(=O)[C@H](CC(C)C)NC(=O)OCc1ccccc1 [MG-132] (Cbz-Leu-Leu-Leu-aldehyde)	markedly reduced
Cc1ncsc1-c1ccc([C@H](C)NC(=O)[C@@H]2C[C@@H](O)CN2C(=O)[C@@H](N)C(C)(C)C)cc1 [(S,R,S)-AHPC-Me]	reduced
NS(=O)(=O)OC[C@@H]1C[C@@H](n2ccc3c(N[C@H]4CCc5ccccc54)ncnc32)C[C@@H]1O [MLN-4924]	markedly reduced
Nc1cccc2c1CN(C1CCC(=O)NC1=O)C2=O (stereo not shown) [Lenalidomide]	had no effect
